Laboratory results: a melting point compilation (Tetko et al.; mined from patent text by program, amines drawn as free bases though some values may be those of a salt)

| Compound | melting point [°C] |
| --- | --- |
| NS(=O)(=O)c1ccc(-c2noc(-c3cnn4c(C5CC5)cc(-c5ccc(C(F)(F)F)cc5)nc34)n2)cc1 | 313 |
| COc1ccc2c(c1)c(CC(=O)O)c(C)n2C(=O)c1ccc(OC(F)(F)F)cc1 | 136 to 138 |
| CCOCc1cc2ccccc2oc1=Nc1ccc(OC)cc1 | 78 to 79 |
| O=C(O)c1ccc(-c2nnc(-c3ccccc3[N+](=O)[O-])o2)cc1 | 239 to 240 |
| COc1ccccc1CCCNc1ccc(C(=O)O)cc1 | 155 to 157 |
| CCCCN1CCC(CNC(=O)c2cc(Cl)c(NC)n3ccnc23)CC1 | 148 |
| O=C(O)COc1ccc(C2=CC(=O)CCC2)c(Cl)c1Cl | 197 to 198 |
| CCCOc1nc2sc(Cl)cc2c(=NC(=O)OC)n1CCC | 65 to 67 |
| c1ccc(CNCC2CCn3c(nc4ccccc43)S2)cc1 (configuration not stated) | 155 to 156 |
| CCN(CC)C(C#N)c1ccc(OCc2ccccc2)cc1 (configuration not stated) | 75 to 76 |
| CCCCNS(=O)(=O)c1ccc(N2CCC(NC[C@H](O)COc3cccc4[nH]c5ccccc5c34)CC2)cc1 | 166 to 179 |
| CCCCCCCCc1ccc(CCC(C)(CCOC(C)=O)NC(C)=O)cc1 (configuration not stated) | 137 to 141 |
| Cc1ccc(C(=O)Nc2ccc(CN3CCN(C)CC3)c(C(F)(F)F)c2)cc1C#Cc1ccc(NC2CCC2)nn1 | 120 to 121 |
| Cc1cc(N=C2NCCN2)cc(NS(C)(=O)=O)c1 | 54 to 77 |
| C=C(C)C(=O)Oc1cccc(-c2cccc(OC(=O)C(=C)C)c2)c1 | 70 |
| COC(=O)COc1ccc(CCN2CCN(c3ccncc3)CC2)cc1 | 104 to 105 |
| CN1C(=O)CCC2(C)C3CCC4(C)C(OCC(=O)O)CCC4C3CCC12 (configuration not stated) | 180 to 184 |
| Cc1ccc(-c2ccccc2)cc1Cn1c(C)nn(C)c1=O | 139 |
| CCCCC/C(=C\c1ccccc1)CNc1cccc(-c2ccnc3c(C(=O)c4cccs4)cnn23)c1 | 110 to 112 |
| COc1ccnc(CCc2nc3cccnc3n2-c2ccc(OCc3ccccc3)c(F)c2)c1 | 168 to 170 |
| Nc1nc2cccnc2c2c1nc(O)n2Cc1ccccc1 | > 250 |
| O=S1(=O)c2cccc3cccc(c23)N1CCCCN1CCN(c2ccc(O)cc2)CC1 | 195 |
| C=C(C)COc1ccc(C(=O)C=Cc2ccc(N(C)C)cc2)c(O)c1 | 85 to 87 |
| CCCCCCCCCCc1nc(N(C)C)nc(OC)c1O | 59 to 60 |
| COc1ccc(CCNC(=O)COCCC(=O)NCCc2ccccc2)cc1OC | 108 to 110 |
| CCOc1nc2cccc(C(Br)Br)c2c(=O)o1 | 98 to 99 |

| Compound | melting point [°C] |
| --- | --- |
| CC(C)OC(=O)c1cc(N)n(C)n1 | 86 to 87 |
| Cc1ccc(S(=O)(=O)OCC2COc3ccc4[nH]c(C(F)(F)F)nc4c3O2)cc1 (configuration not stated) | 114 to 116 |
| CC1CCN(c2ccc([N+](=O)[O-])cc2C(=O)c2ccccc2Cl)CC1 | 84 |
| O=C(N[C@H]1CC[C@H](CCN2CCN(c3nccc4c3CCO4)CC2)CC1)C1CCC1 | 202 |
| CS(=O)(=O)Nc1ccc2ccccc2c1-c1c(P(=O)(c2ccccc2)c2ccccc2)ccc2ccccc12 | 282 |
| COC(=O)C1CCC(OC2=C3N=c4ccccc4=C3C(Cc3ccc(F)cc3)C=C2)O1 (configuration not stated) | 85 to 86 |
| Cn1c(Cl)c([N+](=O)[O-])c(=O)n(C)c1=O | 91 to 92 |
| CCOC(=O)C1=Cc2c(ccc(Cl)c2I)OC1C(F)(F)F (configuration not stated) | 117 to 119 |
| CCCc1c(CSc2nnc(SCCCC(=O)O)s2)ccc(C(C)=O)c1O | 75 to 78 |
| CCOc1cc2cc3c(Nc4cc(OC)c(Cl)cc4C)c(C#N)cnc3cc2cc1OCCN1CCOCC1 | 201 to 203 |
| Cc1nn(-c2ccccn2)c(-c2ccccc2)c1CC(=O)O | 182 to 183 |
| COC(=O)c1ccc(N2C(=O)CCC2CN=[N+]=[N-])c([N+](=O)[O-])c1 (configuration not stated) | 68 to 70 |
| CCCCCCC1c2sccc2CCN1CCNC(=O)c1ccc(NS(C)(=O)=O)cc1 (configuration not stated) | 132 to 134 |
| O=C1C=CC(=O)C(CC(Cl)(Cl)Cl)=C1 | 115 |
| CCCc1cc(-c2noc3cc(O)ccc23)ccc1O | 227 to 229 |
| Fc1ccc2nc(-c3ccccc3)cc(Cl)c2c1 | 96 to 99 |
| CN(C)CCc1[nH]c2ccccc2c1CSC(=S)N(C)C | 125 to 128 |
| CC(C)(C)c1cc(NC(=O)NNC(=O)c2ccc([N+](=O)[O-])cc2)cc(C(C)(C)C)c1O | 163 to 164 |
| CCOC(=O)CCCCCc1c(O)c2cccnc2n(-c2ccccc2)c1=O | 167 to 168 |
| CCCCCC1CCC(c2ccc(-c3cc(F)c(C(F)(F)Oc4cc(F)c(C(F)(F)F)c(F)c4)c(F)c3)c(F)c2)CC1 (configuration not stated) | 74 |
| CCCCCCOc1ccc(C(=O)Cl)cc1 | 90 to 93 |
| CC(=O)NC1(C)CCCc2nc(OCc3ccccc3)ccc21 (configuration not stated) | 153 to 154 |
| N#Cc1ccc(-c2ccc(-c3ccc(-c4ccc(C#N)cc4)o3)o2)cc1 | 298 to 299 |
| NS(=O)(=O)c1cc(Br)cc(C(F)(F)F)c1 | 174 to 175 |
| CCCCCCCCCCCCCCCCCCOc1cc(N(CC(=O)O)CC(=O)O)cc([N+](=O)[O-])c1 | 131 to 134 |
| CN1C(=O)c2ccc(CBr)cc2S1(=O)=O | 153 to 154 |

| Compound | melting point [°C] |
| --- | --- |
| O=c1oc2ccccc2c(O)c1Sc1ccccc1 | 186 to 189 |
| Nc1ccc(Br)cc1CC1NC(=O)NC1=O (configuration not stated) | > 310 |
| CC(C)OC1OC(=O)CC(C)(C)C1OS(C)(=O)=O (configuration not stated) | 75 |
| O=c1c2cnc(Cl)cc2[nH]c2ccnn12 | > 300 |
| CC(=O)Oc1c(C)ccc2ccccc12 | 81 to 83 |
| NC(=O)N(c1ccccc1)c1nc(Cl)nc(Cl)n1 | 151 to 154 |
| CC(=O)SC1CC(=O)N1C(C(=O)OCc1ccc([N+](=O)[O-])cc1)=P(c1ccccc1)(c1ccccc1)c1ccccc1 (configuration not stated) | 154 to 155 |
| CCOC(=O)c1cn(-c2ccc(F)cc2F)c2nc(N3CCC(N)C3)c(F)cc2c1=O (configuration not stated) | 200 to 202 |
| Cc1nccn1CC(C)C(=O)c1cn(C)c2ccccc12 (configuration not stated) | 205 to 207 |
| CC(C)(C)c1ccc2c(Cl)c3ccccc3c(C=O)c2c1 | 126 to 129 |
| C[C@@H](NC(=O)c1c[nH]c2ncc(-c3nn(C)c4ccsc34)nc12)C(=O)N1CC(C#N)C1 | 310 to 320 |
| N#Cc1ccc(Oc2cccc(F)c2)cc1 | 67 to 69 |
| CCCCOC(=O)CCC(C)(c1ccc(O)c(C(C)(C)C)c1)c1ccc(O)c(C(C)(C)C)c1 | 123 |
| Cc1ccccc1-c1c(NC(=O)Nc2ccc(F)cc2F)c(=O)n(C)c2ccc(Cl)cc12 | 163 to 165 |
| CCOC(=O)c1ccc(OCCN2CCN(c3ccc(I)nn3)CC2)cc1 | 123 |
| C#CCn1nc(-c2ccc(S(C)(=O)=O)cc2)c(-c2ccc(F)cc2)c1C(F)(F)F | 158 to 160 |
| COc1ccc(C(=O)Nc2ccccc2)cc1NCc1ccc(O)c([N+](=O)[O-])c1 | 175 to 176 |
| O=C(O)[C@@H]1CCC(=O)N1Cc1ccccc1 | 91 to 93 |
| Oc1ccc(-n2nc3ccc(Cl)cc3n2)c(O)c1 | 188 to 189 |
| Cc1cc(-c2ccc(C(=O)N3CCN(S(=O)(=O)c4ccc5cc(Br)ccc5c4)CC3)cc2)ccn1 | 204 to 205 |
| O=C1OCCC1N[C@@H](Cc1ccccc1)C(=O)OCc1ccccc1 (some centres not stated) | 46 to 47 |
| Cc1ccc(S(=O)(=O)OCC2(CO)OC(n3ccc(=O)[nH]c3=O)C(O)C2O)cc1 (configuration not stated) | 119 to 120 |
| CCOC(=O)COCCCC(=CC(N)C(=O)O)CP(=O)(O)O (configuration not stated) | 215 to 218 |
| CCOC(=O)c1cnc2ccccc2c1O | 266 |
| ON=C1CCCc2cc(OCCn3ccnc3)ccc21 | 177 to 179 |
| COc1ccc(C(=O)Nc2ccc3ccc(Oc4ccccc4Br)nc3n2)cc1 | 183 |

| Compound | melting point [°C] |
| --- | --- |
| CN1COC(CC23CCC(c4ccccc42)c2ccccc23)C1 (configuration not stated) | 106 to 109 |
| N#Cc1cnc2cc(I)ccc2c1Cl | 165 to 167 |
| O=C(NC(=S)Nc1ccccc1-c1ccc(F)cc1)c1ccccc1 | 123 to 124 |
| CC(C(N)=O)c1ccc(N)cc1 (configuration not stated) | 120 to 122 |
| CCOC(=O)COc1ccc(Oc2ccc3cc(Cl)ccc3n2)cc1 | 95 |
| Cc1cccc(N2CCNC2=O)c1 | 137 to 138 |
| Cc1nc(Cl)c(C#N)c2c1CCCC2 | 98 |
| CC1=CC(OC(=O)C=Cc2ccc(N)cc2)C(O)C(C)(C)CC1=O (configuration not stated) | 72 to 74 |
| O=[N+]([O-])c1cccc2c1nnn2SC(Cl)(Cl)Cl | 136 to 138 |
| CC(=O)CCN(CCNC(=O)OC(C)(C)C)c1nc2cc(Cl)ccc2o1 | 145 to 148 |
| COc1ccc(CN2C(=O)[C@@H](N3C(=O)c4ccccc4C3=O)[C@H]2c2ccc(Cl)cc2)c(OC)c1 (relative stereo) | 178 to 180 |
| COc1cccc(Sc2ccccc2CC(=O)O)c1 | 63 to 65 |
| COc1ccc2c(c1)c(C#N)cn2C | 100 to 104 |
| CCCCCc1cc2c(nc(O)n2CCCCS(C)(=O)=O)c(N)n1 | 188 to 189 |
| CCN1c2ncccc2C(=O)Nc2c(C)cc(OC)nc21 | 249 to 251 |
| N#Cc1ccccc1-c1cccc(-n2cnc3cc(-c4cnco4)ccc32)c1 | 222 to 226 |
| O=S1(=O)N=C(OCc2snc(Cl)c2Cl)c2ccccc21 | 165 to 167 |
| Cn1ncc(/C=C/C(=O)Nc2ccc(OCc3cscn3)cc2)c1-c1ccc(F)cc1 | 171 to 172 |
| CC12CC(=O)C3C(CCC4CC(O)CCC43C)C1CCC2C(=O)CCCl (configuration not stated) | 110 to 112 |
| O=C1OCCN1CCCn1ccnc1[N+](=O)[O-] | 89 to 91 |
| Cn1ncc2c1-c1c(Oc3ncccn3)sc(C(=O)O)c1CC2 | 256 to 258 |
| O=C(O)CCCCCCCCCCC(=O)Nc1ccccc1OCCCC(=O)O | 128 to 130 |
| CCn1cc(C(=O)O)c(=O)c2c(C)c(F)c(F)cc21 | > 300 |
| Cc1noc(C)c1Cn1cc(NC(=O)Cc2ccccc2)cn1 | 106 to 108 |
